The values that follow are results of earlier work, collected in publication PMC7340670, “Phase I study of TAS-115, a novel oral multi-kinase inhibitor, in patients with advanced solid tumors” (Investigational New Drugs, 2019).

Data set [1] has as its system patients with solid tumours. Also noted: method as in PMID 21606412. To be noted: phase I study for solid tumours; cited from earlier work.
The subject of data set [2] is circulating sMET. Further details: method as in PMID 21606412, PMID 21156020, PMID 24687921. Conditions: previous clinical studies; cited from earlier work.

On to `COc1cc2nccc(Oc3ccc(NC(=O)C4(C(=O)Nc5ccc(F)cc5)CC4)cc3)c2cc1OC` [cabozantinib], for which, in data set [1], the TRAE decreased appetite is 48%, the TRAE diarrhea was 57%, the TRAE fatigue is 55% and the TRAE nausea is 43%. For the same compound, in data set [1], the “TRAEs neutropenia, anemia, hypophosphatemia, and thrombocytopenia” value is listed as “not observed”. Moreover, the “levels of circulating sMET” value in data set [2] is “Increased levels”.

In the case of “onartuzumab: agent of a previous clinical study in which increased circulating sMET was reported (ref 21)”, in data set [2], the “levels of circulating sMET” value is reported as “Increased levels”.

On to “rilotumumab: agent of a previous clinical study in which increased circulating sMET was reported (ref 20)”, for which, in data set [2], the “levels of circulating sMET” value is reported as “Increased levels”.
